Experimental data from patent US9994691B2, “Antimicrobial cleansing composition” (Conopco, Inc., d/b/a UNILEVER, priority 2014, dated 2018).

Text: Disclosed antimicrobial cleansing composition includes 0.1 to 100 ppm silver (I) compound. […] More particularly, silver ion solubility [Ag+], a value given in mol/L may be calculated using the formula: [Ag+]=(Ksp·x)^(1/(x+1))

In the case of [Cl][Ag] [Silver chloride], the “Silver Ion Solubility [Ag+]” value is reported as 13 µM.
